The subject of the first assay is muscle (M) isoform of CPT-I.
Test: not given
The following applies: read-out: IC50 of malonyl-CoA inhibition of CPT-I; cited from earlier work.
For the compound `CC(C)(COP(=O)(O)OP(=O)(O)OC[C@H]1O[C@@H](n2cnc3c(N)ncnc32)[C@H](O)[C@@H]1OP(=O)(O)O)[C@@H](O)C(=O)NCCC(=O)NCCSC(=O)CC(=O)O` [Malonyl-CoA], the concentration for half-maximal inhibition (IC50) was 0.03 µM.

In another assay the test system is Isolated Working Rat Hearts. In words: Glucose oxidation in isolated working rat hearts.
Details: not given
As to the method: Isolated Working Rat Heart Assay Protocol
Isolated working hearts from male Sprague-Dawley rats (300-350 g) are subjected to a 60-minute aerobic perfusion period. The working hearts are perfused with 95% O2, 5% CO2 with a modified Krebs-Henseleit solution containing 5 mM glucose; 100 μU/mL insulin; 3% fatty acid-free BSA; 2.5 mM free Ca^2+, and 0.4 to 1.2 mmol/L palmitate (Kantor et al., Circulation Research 86:580-588 (2000)). The test compound is added 5 minutes before the perfusion period. DMSO (0.05%) is used as control.
Measurement of Glucose Oxidation Rates
Samples were taken at 10-minute intervals for measurements of experimental parameters. Glucose oxidation rates are determined by the quantitative collection of ^14CO2 produced by hearts perfused with buffer containing [U14]-Glucose (R. Barr and G. Lopaschuk, in “Measurement of cardiovascular function”, McNeill, J. H. ed., Chapter 2, CRC press, New York (1997)). After the perfusion, the ^14CO2 from the perfusae is subsequently released by injecting 1 mL of perfusate into sealed test tube containing 1 mL of 9NH2SO4. The tube was sealed with a rubber stopper attached to a scintillation vial containing a piece of filter papers saturated with 300 μl of hyamine hydroxide. The scintillation vials with filter papers were then removed and Ecolite Scintillation Fluid added. Samples were counted by standard procedures as described above. Average rates of glucose oxidation for each phase of perfusion are expressed as μmol/min/g dry wt as described above.
Active compounds are characterized by an increase in glucose oxidation and/or decrease in fatty acid oxidation as compared to the control experiments (DMSO). The compounds that caused statistically significant increases in glucose oxidation and/or decrease in fatty acid oxidation are considered to be active. Statistical significance was calculated using the Student's t test for paired or unpaired samples, as appropriate. The results with P<0.05 are considered to be statistically significant.
Consider `CC(C)N(C(=O)NC1CCN(C(=O)COc2ccccc2)CC1)c1ccc2nc(S)sc2c1` [CBM-000302218], for which the “GOX (%), glucose oxidation rate relative to DMSO (100%)” value came out at 236%. For `CC(C)N(C(=O)NC1CCN(S(=O)(=O)c2cccc(C#N)c2)CC1)c1ccc2nc(S)sc2c1` [CBM-000302343], the “GOX (%), glucose oxidation rate relative to DMSO (100%)” value is reported as 177%. As for `CC(C)N(C(=O)NC1CCN(S(=O)(=O)c2cccc(C(F)(F)F)c2)CC1)c1ccc2nc(S)sc2c1` [CBM-000302280], the “GOX (%), glucose oxidation rate relative to DMSO (100%)” value is listed as 683%. The same measure, in the same setting: the result for `CN(C(=O)NC1CCN(S(=O)(=O)c2ccccc2)CC1)c1ccc2nc(S)sc2c1` [CBM-000302281, 3-(1-Benzenesulfonyl-piperidin-4-yl)-1-(2-mercapto-benzothiazol-6-yl)-1-methyl-urea] reads 190%; that for `CC(C)N(C(=O)NC1CCN(S(=O)(=O)c2cccc(Cl)c2)CC1)c1ccc2nc(S)sc2c1` [CBM-000302342], 285%; that for `CCCCS(=O)(=O)N1CCC(NC(=O)N(c2ccc3nc(S)sc3c2)C(C)C)CC1` [CBM-000302276], 310%.

The next assay concerns the target T1, hMCD (Homo sapiens, UniProt O95822).
T1 sequence (O95822 40-493): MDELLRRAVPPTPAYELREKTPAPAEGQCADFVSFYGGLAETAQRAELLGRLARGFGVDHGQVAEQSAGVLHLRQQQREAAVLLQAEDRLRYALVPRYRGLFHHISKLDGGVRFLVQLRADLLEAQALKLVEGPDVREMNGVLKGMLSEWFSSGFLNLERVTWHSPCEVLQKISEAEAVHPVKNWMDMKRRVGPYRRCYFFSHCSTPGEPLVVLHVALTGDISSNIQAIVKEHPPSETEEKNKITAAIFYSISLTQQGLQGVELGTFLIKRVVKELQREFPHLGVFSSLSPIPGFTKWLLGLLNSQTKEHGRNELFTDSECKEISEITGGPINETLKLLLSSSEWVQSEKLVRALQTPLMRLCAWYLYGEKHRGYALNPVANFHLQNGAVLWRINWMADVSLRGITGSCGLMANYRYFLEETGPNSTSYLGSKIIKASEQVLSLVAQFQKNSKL
In words: In vitro MCD inhibitory assay. In kind it is biochemical. The following applies: read-out: Ki, in vitro MCD inhibitory activities. The text has this: In Vitro MCD Inhibitory Assay
As shown in eq. 1-3, the establishment of the kinetic equilibrium between malate/NAD and oxaloacetate/NADH was catalyzed by malic dehydrogenase (eq. 2). […] The accumulation of NADH can be continuously followed by monitoring the increase of fluorescence emission at 460 nm on a fluorescence plate reader. The fluorescence plate reader was calibrated using the authentic acetyl-CoA from Sigma. For a typical 96-well plate assay, the increase in the fluorescence emission (λex=360 nm, λem=460 nm, for NADH) in each well was used to calculate the initial velocity of hMCD. Each 50 μL assay contained 10 mM phosphate buffered saline (Sigma), pH 7.4, 0.05% Tween-20, 25 mM K2HPO4—KH2PO4 (Sigma), 2 mM Malate (Sigma), 2 mM NAD (Boehringer Mannheim), 0.786 units of MD (Roche Chemicals), 0.028 unit of CS (Roche Chemicals), 5-10 nM hMCD, and varying amounts of MCA substrate. Assays were initiated by the addition of MCA, and the rates were corrected for the background rate determined in the absence of hMCD.
With `CC(C)N(C(=O)NC1CCN(S(=O)(=O)C(C)C)CC1)c1ccc2nc(S)sc2c1` [CBM-000302215, 1-Isopropyl-1-(2-mercapto-benzothiazol-6-yl)-3-[1-(propane-2-sulfonyl)-piperidin-4-yl]-urea], the Ki was 0.0191 µM.

Regarding `CC(C)N(C(=O)NC1CCN(C(=O)COc2ccccc2)CC1)c1ccc2nc(S)sc2c1` [CBM-000302218], the Ki amounted to 0.0074 µM. Take `CC(C)N(C(=O)NC1CCN(S(=O)(=O)c2cccc(C#N)c2)CC1)c1ccc2nc(S)sc2c1` [CBM-000302343]: the inhibition constant (Ki) turned out to be 0.0038 µM.

As for `CC(C)N(C(=O)NC1CCN(C(=O)CCC2CCCC2)CC1)c1ccc2nc(S)sc2c1` [CBM-000302275], the Ki turned out to be 0.0224 µM. For `CC(C)N(C(=O)NC1CCN(S(=O)(=O)c2ccc(F)c(Cl)c2)CC1)c1ccc2nc(S)sc2c1` [CBM-000302406], the inhibitory constant (Ki) was found to be 0.0014 µM. With `CC(C)Oc1ccc(S(=O)(=O)N2CCC(NC(=O)N(c3ccc4nc(S)sc4c3)C(C)C)CC2)cc1` [CBM-000302368], the Ki was found to be 0.624 µM. As for `CC(=O)c1ccc(S(=O)(=O)N2CCC(NC(=O)N(c3ccc4nc(S)sc4c3)C(C)C)CC2)cc1` [CBM-000302389], the inhibitory constant (Ki) is 0.0843 µM. Regarding `CC(C)N(C(=O)NC1CCN(C(=O)OCc2ccccc2)CC1)c1ccc2nc(S)sc2c1` [CBM-000302130], the Ki came to 0.011 µM. As for `CC(C)N(C(=O)NC1CCN(S(=O)(=O)c2ccc(C(F)(F)F)cc2)CC1)c1ccc2nc(S)sc2c1` [CBM-000302279], the inhibitory constant (Ki) was 0.0616 µM.

In the case of `COc1ccc(S(=O)(=O)N2CCC(NC(=O)N(c3ccc4nc(S)sc4c3)C(C)C)CC2)cc1` [CBM-000302407], the Ki is 0.0175 µM.

For the compound `CC(C)N(C(=O)NC1CCN(S(=O)(=O)c2cccc(C(F)(F)F)c2)CC1)c1ccc2nc(S)sc2c1` [CBM-000302280], the Ki was 0.0026 µM. Still for that read-out and setting: the result for `CC(C)N(C(=O)NC1CCN(S(=O)(=O)c2cnc(Cl)c(Br)c2)CC1)c1ccc2nc(S)sc2c1` [CBM-000302426] reads 0.0193 µM; that for `CCc1ccc(S(=O)(=O)N2CCC(NC(=O)N(c3ccc4nc(S)sc4c3)C(C)C)CC2)cc1` [CBM-000302404], 0.0275 µM. Still for that read-out and setting: the result for `CC(C)N(C(=O)NC1CCN(S(=O)(=O)c2ccccc2)CC1)c1ccc2nc(S)sc2c1` [CBM-000302277] reads 0.0028 µM. The same measure, in the same setting: the same measure for `CCCc1ccc(S(=O)(=O)N2CCC(NC(=O)N(c3ccc4nc(S)sc4c3)C(C)C)CC2)cc1` [CBM-000302384]: 0.0661 µM. Turning to `CC(C)N(C(=O)NC1CCN(C(=O)CCc2ccccc2)CC1)c1ccc2nc(S)sc2c1` [CBM-000302220], the inhibitory constant (Ki) amounted to 0.0204 µM.

Regarding `COc1cccc(S(=O)(=O)N2CCC(NC(=O)N(c3ccc4nc(S)sc4c3)C(C)C)CC2)c1` [CBM-000302386], the Ki is 0.0013 µM. Still for that read-out and setting: the result for `CCCNC(=O)N1CCC(NC(=O)N(c2ccc3nc(S)sc3c2)C(C)C)CC1` [CBM-000302274] reads 0.0406 µM.

On to `CC(C)N(C(=O)NC1CCN(S(=O)(=O)Cc2ccccc2)CC1)c1ccc2nc(S)sc2c1` [CBM-000302405], for which the Ki was 0.0078 µM. The same measure, in the same setting: the same measure for `CC(C)N(C(=O)NC1CCN(S(=O)(=O)c2ccc(OC(F)(F)F)cc2)CC1)c1ccc2nc(S)sc2c1` [CBM-000302278]: 0.105 µM.

Consider `CC(C)CCC(=O)N1CCC(NC(=O)N(c2ccc3nc(S)sc3c2)C(C)C)CC1` [CBM-000302313, 1-isopropyl-1-(2-mercapto-benzothiazole-6-yl)-3-[1-(4-methyl-pentanolyl)-piperidin-4-yl]-urea], for which the Ki came to 0.0235 µM. In the case of `CC(C)c1ccc(S(=O)(=O)N2CCC(NC(=O)N(c3ccc4nc(S)sc4c3)C(C)C)CC2)cc1` [CBM-000302387], the Ki was 0.125 µM. The same measure, in the same setting: the same measure for `CC(C)N(C(=O)NC1CCN(S(=O)(=O)c2ccc(C(C)(C)C)cc2)CC1)c1ccc2nc(S)sc2c1` [CBM-000302344]: 0.133 µM. Still for that read-out and setting: the same measure for `CC(C)N(C(=O)NC1CCN(S(=O)(=O)c2ccc(F)cc2)CC1)c1ccc2nc(S)sc2c1` [CBM-000302425]: 0.0014 µM; for `CC(C)N(C(=O)NC1CCN(CCCC(F)(F)F)CC1)c1ccc2nc(S)sc2c1` [CBM-000302182]: 0.08 µM. On to `CCCC(=O)N1CCC(NC(=O)N(c2ccc3nc(S)sc3c2)C(C)C)CC1` [CBM-000302314], for which the Ki is 0.0585 µM.

`CC(C)N(C(=O)NC1CCN(S(=O)(=O)c2cccc(F)c2)CC1)c1ccc2nc(S)sc2c1` [CBM-000302369]: the inhibition constant (Ki) stood at 0.0028 µM.

Take `CC(C)N(C(=O)NC1CCN(c2ccc(OC(F)(F)F)cc2)CC1)c1ccc2nc(S)sc2c1` [CBM-000302361]: the Ki turned out to be 0.0872 µM. As for `CC(C)N(C(=O)NC1CCN(C(=O)c2ccc(C(F)(F)F)cc2)CC1)c1ccc2nc(S)sc2c1` [CBM-000302217], the Ki stood at 0.0423 µM. Still for that read-out and setting: the result for `CC(C)N(C(=O)NC1CCN(C(=O)c2ccc(F)cc2)CC1)c1ccc2nc(S)sc2c1` [CBM-000302348] reads 0.0407 µM; that for `COC(=O)CCC(=O)N1CCC(NC(=O)N(c2ccc3nc(S)sc3c2)C(C)C)CC1` [CBM-000302316], 0.0996 µM; that for `COc1ccc(C(=O)N2CCC(NC(=O)N(c3ccc4nc(S)sc4c3)C(C)C)CC2)cc1` [CBM-000302359], 0.0072 µM. On the same count and under the same terms, the same measure for `CC(C)N(C(=O)NC1CCN(C(=O)Nc2ccc(C(F)(F)F)cc2)CC1)c1ccc2nc(S)sc2c1` [CBM-000302219]: 0.0305 µM; for `CC(C)N(C(=O)NC1CCN(S(=O)(=O)c2cccc(Cl)c2)CC1)c1ccc2nc(S)sc2c1` [CBM-000302342]: 0.0007 µM; for `CCCCOc1ccc(C(=O)N2CCC(NC(=O)N(c3ccc4nc(S)sc4c3)C(C)C)CC2)cc1` [CBM-000302216]: 0.0881 µM.

`CCCCS(=O)(=O)N1CCC(NC(=O)N(c2ccc3nc(S)sc3c2)C(C)C)CC1` [CBM-000302276]: the Ki is 0.0007 µM.

In the case of `CC(C)N(C(=O)NC1CCN(C(=O)c2ccco2)CC1)c1ccc2nc(S)sc2c1` [CBM-000302360], the inhibition constant Ki came out at 0.024 µM.

With `CC(C)N(C(=O)NC1CCN(S(=O)(=O)c2ccc(C#N)cc2)CC1)c1ccc2nc(S)sc2c1` [CBM-000302424], the inhibitory constant (Ki) was determined as 0.123 µM.

The next assay concerns breast carcinoma cells.
Test: not given
The following applies: cited from earlier work.
In the case of `CCCCCCCCCCCCCCOc1ccc(C(=O)O)o1` [TOFA, 5-(tetradecyloxy)-2-furoic acid], the “malonyl-CoA level, % of the control” value was 60%.

The values are drawn from patent US8080665B2 (Chugai Seiyaku Kabushiki Kaisha, priority 2003, dated 2011).
